Measurements from patent publication US10253060B2, “Terpenoid derivatives” (Daiichi Sankyo Company, Limited, priority 2013, dated 2019).

Legend:
Hmox1 gene = assay: Effect of inducing Nrf2 target gene (in vitro): Hmox1 gene expression in ARPE-19 cells, real-time quantitative PCR; format: cell-based, human; settings: for Hmox1 gene expression level (relative value): approx. 6 hours, 0 nM defined as 1.0, mean ± SD, 3 wells; for concentration at which the expression level of the Hmox1 gene was increased 2-fold / concentration at which the expression level of the Hmox1 gene was increased 5-fold: analysed with Prism
Description: The Hmox1 gene was used as the Nrf2 target gene.
The expression level of the Hmox1 gene induced by the addition of a test compound to ARPE-19 cells (human retinal pigment epithelium cell line, ATCC, catalog No. CRL-2302) was measured to examine the effect of inducing the Hmox1 gene by the test compound. The test compound was terpenoid derivative B of the present invention obtained in Example 1 and CDDO-Me as Comparative Example.
The ARPE-19 cells were cultured (5% CO2, 37° C.) using a DMEM/F12 (Life Technologies Japan Ltd., catalog No. 11330-032) mixed medium containing 10% inactivated FBS. The medium contained 100 units/mL (final concentration) penicillin and 100 μg/mL (final concentration) streptomycin.
The ARPE-19 cells were seeded at 60000 cells/well in a 24-well plate. The amount of the medium was 500 μL. Approximately 24 hours later, the medium was replaced with a medium containing terpenoid derivative B of the present invention obtained in Example 1 or CDDO-Me, and the culture was continued. Approximately 6 hours later, mRNA was collected from the ARPE-19 cells using an extraction kit (manufactured by Qiagen N.V., RNeasy Mini Kit, catalog No. 74106). From the obtained mRNA, cDNA was prepared using a cDNA synthesis kit (manufactured by GE Healthcare Life Sciences, First-Strand cDNA Synthesis Kit). The obtained cDNA was amplified using a reagent (manufactured by Applied Biosystems, Inc., TaqMan(R) Gene Expression Master Mix (catalog No. 4369016)) and a probe, and subjected to real-time quantitative PCR (Real-time PCR HT7900 manufactured by Applied Biosystems, Inc. was used).
When the concentration of the test compound was 0 nM, the expression level of the Hmox1 gene was defined as 1.0±0.0. The expression level of the Hmox1 gene at each concentration of the test compound was indicated as a relative value. Each group consisted of 3 wells and was indicated by a mean and standard deviation.
The activity ratios of terpenoid derivative B of the present invention to CDDO-Me were 2747 times and 92 times.

ARPE-19 cells = assay: Cytoprotective action: suppression of t-BHP-induced decrease in number of live ARPE-19 cells; format: cell-based, human; settings: 300 μM t-BHP; for Number of live cells (percentage): no t-BHP/no compound = 100%, mean ± SD, 3 wells
Description: The peroxide tert-butyl hydroperoxide (t-BHP) is known to cause oxidative stress-dependent cell injury (Chem Biol Interact 2009; 181: 366- and Food Chem Toxicol 2011; 49: 2081-).
The test compound was terpenoid derivative B of the present invention obtained in Example 1 and CDDO-Me as Comparative Example.
ARPE-19 cells were cultured (5% CO2, 37° C.) using a DMEM/F12 (Life Technologies Japan Ltd., catalog No. 11330-032) mixed medium containing 10% inactivated FBS. The medium contained 100 units/mL (final concentration) penicillin and 100 μg/mL (final concentration) streptomycin.
The ARPE-19 cells were seeded at 10000 cells/well in a 96-well plate. The amount of the medium was 100 μL. Approximately 6 hours later, the medium was replaced with a medium containing terpenoid derivative B of the present invention obtained in Example 1 or CDDO-Me. After culture for approximately 16 hours, the number of live ARPE-19 cells was measured (Cell Counting Kit-8 (catalog No. CK01) manufactured by Dojindo Laboratories was used). Then, the medium was replaced with medium containing 300 μM t-BHP (manufactured by Sigma-Aldrich Corp., catalog No. 46665) and further containing terpenoid derivative B of the present invention obtained in Example 1 or CDDO-Me. Approximately 6 hours after the addition of t-BHP, the number of live ARPE-19 cells was measured.
The number of live cells in medium containing neither t-BHP nor the test compound was defined as 100%. The number of live cells in medium containing 300 μM t-BHP and each concentration of the test compound was indicated by percentage. Each group consisted of 3 wells and was indicated as a mean and standard deviation.

[1] = test system: oxygen-induced retinopathy in rat; assay: Inhibitory effect on oxygen-induced retinopathy in rat (in vivo); design: species or system SD rat; settings: for Score of pathological condition of retina: rat newborns, oxygen load present, seven times, mean ± SD
Description: SD rat newborns (Charles River Laboratories Japan, Inc., pregnant rats were received) were used in the experiment. From the ages of 1 day to 12 days, the newborns were raised under approximately 80% oxygen with the mother rats. The newborns were raised under the atmosphere from the age of 13 days. A suspension of the terpenoid derivative B was prepared using a 0.5 w/v % methylcellulose solution 400 cP (Wako Pure Chemical Industries, Ltd., catalog No. 133-14255) as a solvent. The suspension was orally administered once a day from the ages of 11 days to 17 days, a total of seven times, at a dose of 0.03, 0.1, or 0.3 mpk with administration volume of 10 mL/kg. On the next day of the final […], the newborn rats were euthanized, and the retina was sampled. The pathological condition of the retina was scored according to the literature (Invest Ophthalmol Vis Sci 2000; 41: 887-). Each group consisted of 14 to 30 eyes and was indicated as a mean and standard deviation.

Row | Structure (SMILES) | Hmox1 gene expression level (relative value) (Hmox1 gene; 0.00001 nM test compound) | Hmox1 gene expression level (relative value) (Hmox1 gene; 0.001 nM test compound) | Hmox1 gene expression level (relative value) (Hmox1 gene; 0.03 nM test compound) | Hmox1 gene expression level (relative value) (Hmox1 gene; 0.3 nM test compound) | Hmox1 gene expression level (relative value) (Hmox1 gene; 3 nM test compound) | Hmox1 gene expression level (relative value) (Hmox1 gene; 30 nM test compound) | concentration at which the expression level of the Hmox1 gene was increased 2-fold (Hmox1 gene) | concentration at which the expression level of the Hmox1 gene was increased 5-fold (Hmox1 gene) | suppression of the decrease in the number of live cells caused by t-BHP (in words) (ARPE-19 cells) | Number of live cells (percentage) (ARPE-19 cells; 0.03 nM test compound) | Number of live cells (percentage) (ARPE-19 cells; 0.3 nM test compound) | Number of live cells (percentage) (ARPE-19 cells; 3 nM test compound) | Number of live cells (percentage) (ARPE-19 cells; 30 nM test compound) | Number of live cells (percentage) (ARPE-19 cells; 300 nM test compound) | activity ratio to CDDO-Me (2-fold Hmox1 increase concentration) (Hmox1 gene) | activity ratio to CDDO-Me (5-fold Hmox1 increase concentration) (Hmox1 gene) | Score of pathological condition of retina ([1]; 0.03 mg/kg oral once a day) | Score of pathological condition of retina ([1]; 0.1 mg/kg oral once a day) | Score of pathological condition of retina ([1]; 0.3 mg/kg oral once a day) | effect on score of the pathological condition of the retina (in words) ([1]; rat oxygen-induced retinopathy, oral 0.03 to 0.3 mg/kg)
1 | COC(=O)[C@]12CCC(C)(C)C[C@H]1[C@H]1C(=O)C=C3[C@@]4(C)C=C(C#N)C(=O)C(C)(C)[C@@H]4CC[C@@]3(C)[C@]1(C)CC2 [CDDO-Me, methyl 2-cyano-3,12-dioxooleana-1,9-dien-28-oate, reference compound] | 1.1 ± 0.0 | 1.0 ± 0.1 | 1.4 ± 0.0 | 1.4 ± 0.1 | 2.1 ± 0.3 | 12.2 ± 2.6 | 2.5 nM | 11 nM | did not completely suppress the decrease in the number of live cells | 61.8 ± 2.0% | 56.7 ± 1.2% | 74.3 ± 1.4% | 84.7 ± 4.8% | 76.1 ± 2.8% | – | – | – | – | – | –
2 | COC(=O)[C@@]12CC[C@]3(C)[C@H](C(=O)C=C4[C@@]5(C)[C@H]6O[C@@]6(C#N)C(=O)C(C)(C)[C@@H]5CC[C@]43C)[C@@H]1CC(C)(C)[C@@H](O)C2 [terpenoid derivative B] | 1.3 ± 0.0 | 0.9 ± 0.1 | 5.4 ± 0.1 | 6.1 ± 0.5 | 10.4 ± 1.5 | 20.8 ± 1.9 | 0.00091 nM | 0.12 nM | – | 90.3 ± 3.9% | 99.0 ± 10.0% | 119.7 ± 5.7% | 114.3 ± 9.5% | 111.2 ± 3.8% | 2747 times | 92 times | 3.93 ± 0.79 | 3.54 ± 0.48 | 2.57 ± 0.35 | suppressed the score of the pathological condition of the retina in a dose-dependent manner
